Read-outs that look alike come from different tables or passages of the source.
Key:
CatSper [1] = target: T1, CatSper (Homo sapiens, UniProt Q7RTX7+Q86XQ3+Q8NEC5+Q96P56); experiment: Inhibition of PGE1-induced Ca2+ influx in human sperm (screen 2 inhibitors); type: cell-based
T1 construct: Motile spermatozoa were selected by a ‘swim-up’ procedure; endogenous in cells; host or cells: motile human spermatozoa (swim-up) from healthy donors
Experimental: (§1) Briefly, motile spermatozoa were selected by swim-up and labeled with the fluorescent calcium indicator Fluo-4 a.m. to image changes in [Ca^2+]i. After centrifugation to remove excess dye, Fluo-4 AM loaded cells were distributed in a 384-wells plate to obtain ∼125,000 cells/well. After measuring basal fluorescence, a first injection of compounds was performed in order to evaluate their effect on [Ca^2+]i alone. This first screen is therefore considered as a screen to search for ‘activators’. Fluorescence was recorded for 12 min during which sperm cells were continuously exposed to compounds. P4 or PGE1 were then added in the same wells to evaluate whether the tested compounds can reduce the ligand-induced activation of CatSper. This second screen was therefore considered to be a search for CatSper ‘inhibitors’.
(§2) Human semen samples were collected from healthy donors by masturbation after a recommended sexual abstinence period of minimum 2 days. Semen samples were allowed to liquefy at 37°C for 15–30 min. Motile spermatozoa were selected by a ‘swim-up’ procedure as previously described ([Strünker et al., 2011]). Briefly, 1 mL of semen was deposited in a 45°-inclined 50 mL Falcon tube with 4 mL of Human Tubular Fluid (HTF) medium containing: 93.8 mM NaCl, 4.7 mM KCl, 0.2 mM MgSO4, 0.37 mM KH2PO4, 2.04 mM CaCl2, 20.98 mM HEPES, 2.78 mM glucose, 21.4 mM Na-lactate, 4 mM NaHCO3, 0.33 mM Na-pyruvate, and the pH was adjusted to 7.35. Motile sperm were allowed to swim at 37°C for 1 hour. The supernatant was collected in 15 mL Falcon tubes and washed twice by centrifugation at 700 x g for 20 min. Sperm were supplemented with 3 mg/mL HSA. Written informed consent was obtained from all donors prior to donation and approved by the Cantonal Ethics Committee of the State of Geneva (CCER #14-147).
(§3) Cells were loaded with the fluorescent Ca^2+ indicator Fluo-4 AM at a final concentration of 2.5 µM for 30 min at 37°C. Excess dye was washed via centrifugation at 700 x g for 20 min and sperm were resuspended in HTF medium to obtain a final concentration of 6.25 x 10^6 cells/mL. 20 μL of cells (corresponding to ∼125,000 cells) loaded with Fluo-4 a.m. were dispensed in a 384-wells plate (Corning, NY, United States) to allow fluorescence measurement. The dye was excited at 480 nm, and emission was recorded at 530 nm. The change in [Ca^2+]i was assessed simultaneously in all wells using a Functional Drug Screening System (FDSS/μCELL) (Hamamatsu Phototonics K.K., Yokohama, Japan) at 37°C. Basal fluorescence was first measured for 30 s. […] P4 and PGE1 were tested at a near-saturating concentration in the HTS in order to evaluate a potential additive or synergistic effect induced by the compounds. Non-specific CatSper inhibitor MDL 12330A was used as a negative control at final concentration of 20 µM while DMSO was used as a vehicle control. For alkalization-induced Ca^2+ measurement, NH4Cl was used as a positive control at a final concentration of 10 mM. Fluorescence was recorded for a total of 16.5 min: 30 s before injection, 12 min after the first injection of the tested compounds, and 4 min after the second injection of either P4 or PGE1. The Prestwick library was tested in technical duplicate. Ca^2+ response curves were normalized using the following formula F−F0/F0×100 , where F 0 is the average of the basal fluorescence prior to the addition of the compound of interest and F corresponds to the fluorescence value at each time point. The ∆F/F0 of the vehicle control (DMSO) was subtracted from all the other values to adjust for dilution and pipetting artifacts. The values of all compounds were normalized to their respective controls.

CatSper [2] = target: T1, CatSper; experiment: Steroid-induced increase in [Ca2+]i in human sperm (Fluo-4 HTS assay, screen 1 activators); type: cell-based; conditions: for Emax: read-out: Max amplitude (%) (± SD)
Experimental: as §1
Human semen samples were collected from healthy donors by masturbation after a recommended sexual abstinence period of minimum 2 days. Semen samples were allowed to liquefy at 37°C for 15–30 min. […] Motile sperm were allowed to swim at 37°C for 1 hour. The supernatant was collected in 15 mL Falcon tubes and washed twice by centrifugation at 700 x g for 20 min. Sperm were supplemented with 3 mg/mL HSA.
as §3, with “20” for “Cells were loaded with the fluorescent Ca^2+ indicator Fluo-4 AM at a final concentration of 2.5 µM for 30 min at 37°C. Excess dye was washed via centrifugation at 700 x g for 20 min and sperm were resuspended in HTF medium to obtain a final concentration of 6.25 x 10^6 cells/mL. 20”, “Non-specific CatSper inhibitor MDL 12330A was used as a negative control at final concentration of 20 µM while DMSO was used as a vehicle control.” left out, “Fluorescence was recorded for a total of 16.5 min: 30 s before injection, 12 min after the first injection of the tested compounds, and 4 min after the second injection of either P4 or PGE1.” left out
Data are shown as mean ± standard deviation (SD) with “n” referring to the number of independent experiments performed using sperm samples from ≥3 different donors. Statistical analysis and fitting of dose-response relations were performed using GraphPad Prism 8.1.1 (Prism, La Jolla, United States). To generate sigmoidal curves, the concentrations were converted to their respective log values, and the data were normalized using the following formula: 100⋅x/Fmax , where Fmax is the maximum value of the positive control. A four-parameter Hill equation with a variable Hill coefficient was fitted to generate the EC02, EC50, and IC50. Statistical significance between control and treated conditions was evaluated using a one-way analysis of variance (ANOVA), followed by Dunnett´s test. A p-value <0.05 was considered significant.

CatSper [3] = target: T1, CatSper; experiment: Inhibition of P4-induced Ca2+ influx in human sperm (screen 2 inhibitors); type: cell-based; conditions: for Max P4 inhibition (%) (± SD): 3 independent experiments
Experimental: as §1, §2, §3

human sperm = experiment: Sperm penetration in viscous media (modified Kremer test); type: cell-based; conditions: steroids 10 µM, P4 5 µM, 1 h, 1% methylcellulose
Experimental: The ability of sperm to penetrate in viscous media similar in viscosity to that found in the female reproductive tract was assessed using the modified Kremer test, as previously described ([Rahban et al., 2021]). Briefly, swim-up recovered and capacitated sperm cells at 3 x 10^6/mL were incubated in the absence (DMSO) or presence of steroids (10 µM), or P4 (5 µM) as a positive control for 1 h at 37°C. A glass capillary (0.2 × 4.0 × 50 mm, CM scientific, UK) was filled with 1% (w/v) methylcellulose (MC, 4000 centipoises cP) prepared with HTF media supplemented with 3 mg/mL HSA, respective compounds (10 µM), P4 (5 µM), or DMSO. The glass capillary tube was then sealed on one end with wax (Vitrex, UK) and added to the sperm cells on the open end. Sperm penetration was assessed after 1 h of incubation at 37°C by counting sperm at 1 cm using a microscope with a ×10 objective.

CatSper [4] = target: T1, CatSper; parameters: method as in Carlson et al., 2022b; conditions: ref Carlson et al., 2022b; read-out: IC50 inhibiting P4-induced response; cited from earlier work
[5] = PGE1-induced response, pooled from 3 independent experiments, read-out: Mean IC50 (PGE1) µM (±SD)
[6] = maximal amplitude of steroid-induced [Ca2+]i increase, relative to P4, 3 independent experiments
[7] = pooled from 3 independent experiments, read-out: Mean EC50 µM (±SD)

C[C@]12CC[C@@H]3c4ccc(OS(=O)(=O)O)cc4CC[C@H]3[C@@H]1CCC2=O [Estropipate]
IC50 (CatSper [1]; [5]): 0.282 µM
effective concentrations as low as (dose-dependent increase in [Ca2+]i) (CatSper [2]): 10 nM
EC50 (CatSper [2]; increase in [Ca2+]i, dose-response 90 µM to 0.3 nM, read-out: EC50 (±SD)): 0.161 µM
Emax (CatSper [2]; [6]): 106%
EC50 (CatSper [2]; [7]): 0.159 µM
increase in [Ca2+]i (in words) (CatSper [2]; steroids 10 µM): highest increase in [Ca^2+]i
Max P4 inhibition (%) (± SD) (CatSper [3]): 90 (±10) %
IC50 (CatSper [3]; P4-induced response, pooled from 3 independent experiments, read-out: Mean IC50 (P4) µM (±SD)): 0.28 µM
IC50 (CatSper [3]; inhibition of P4-induced Ca2+ response, dose-response 90 µM to 0.3 nM, read-out: IC50 (±SD)): 0.288 µM
number of sperm penetrating viscous medium at 1 cm (human sperm): significant increase in cell number

C[C@]12CCC(=O)C=C1CC[C@@H]1[C@@H]2[C@@H](O)C[C@]2(C=O)[C@@H](C(=O)CO)CC[C@@H]12 [aldosterone]
IC50 (CatSper [4]): 33.1 µM

C#C[C@]1(O)CC[C@H]2[C@@H]3CCC4=CC(=O)CC[C@@H]4[C@H]3CC[C@@]21CC [levonorgestrel]
IC50 (CatSper [4]): 32.3 µM

CC(=O)O[C@]1(C(C)=O)CC[C@H]2[C@@H]3C[C@H](C)C4=CC(=O)CC[C@]4(C)[C@H]3CC[C@@]21C [medroxyprogesterone acetate]
IC50 (CatSper [4]): 6.6 µM

C[C@]12C/C(=C/O)C(=O)C[C@@H]1CC[C@@H]1[C@@H]2CC[C@@]2(C)[C@H]1CC[C@]2(C)O [oxymetholone]
IC50 (CatSper [1]): 11.8 µM
EC50 (CatSper [2]; Mean EC50 µM (±SD), pooled from 3 independent experiments): 1.3 µM
Emax (CatSper [2]): 82%
Max P4 inhibition (%) (± SD) (CatSper [3]): 62 (±9) %
IC50 (CatSper [3]; Mean IC50 (P4) µM (±SD), P4-induced response, pooled from 3 independent experiments): 4.74 µM

C[C@H](CCC(=O)O)[C@H]1CC[C@H]2[C@@H]3[C@@H](O)C[C@@H]4C[C@H](O)CC[C@]4(C)[C@H]3CC[C@]12C [urosiol]
IC50 (CatSper [1]; [5]): 12.2 µM
Max amplitude (%) (± SD) (CatSper [2]; [6]): 25 (±8) %
EC50 (CatSper [2]; [7]): 7.89 µM
Max P4 inhibition (%) (± SD) (CatSper [3]): 13 (±3) %
